The text below walks through data of patent US20090137493A1, “Inhibition of tumor metastases using protein kinase C (PKC) inhibitors” (priority 2007, published 2009).

Bridges are numbered along the chain shown (N, C = ends). Where no end group is shown, it is not given here.

The subject of experiment [1] is tumor cells. Description: Histology of lung tissue after fatpad implantation or intravenous injection of tumor cells. As to conditions: four weeks after fatpad implantation or two weeks after intravenous injection of tumor cells, versus TAT. Format: in vivo, mice. An excerpt:
FIGS. 8A-8B are computer-generated photomicrographs of lung tissue from mice four weeks following fatpad implantation of tumor cells. Osmotic pumps were implanted 1 week after fatpad implantation, for delivering TAT (control; FIG. 8A) or αV5-3-TAT peptide (PKC a inhibitor; FIG. 8B).
FIGS. 8C-8D are computer-generated photomicrographs of lung tissue from mice two weeks after intravenous injection of tumor cells. Osmotic pumps were implanted two days prior to […], for delivering TAT (control; FIG. 8C) or αV5-3-TAT peptide (PKC a inhibitor; FIG. 8D).
FIGS. 8A-8D are computer-generated photomicrographs of lung tissue from mice four weeks following fatpad implantation of tumor cells (FIGS. 8A-8B) or two weeks after intravenous injection of tumor cells (FIGS. 8C-8D).

The next experiment concerns 4T1 tumor cells. Description: Growth of primary tumors in vivo (number of tumor cells at primary site of injection). The arrangement: species or system mice. The conditions noted are these: animals injected with 4T1 tumor cells, FIG. 6A, versus saline. How it is done: FIG. 6A is a bar graph showing the affect of saline, the αV5-3-TAT conjugate peptide (αPKC), or the βIIV5-3-TAT conjugate peptide (βPKC) on the growth rate of primary tumors in vivo.
To determine if the effects observed with the α and βIIPKC peptide inhibitors was due to a decrease in metastasis as opposed to a decrease in primary tumor growth, animals injected with 4T1 tumor cells were treated with saline, the αV5-3-TAT conjugate peptide (αPKC), or the βIIV5-3-TAT conjugate peptide (βPKC) and the number of tumors cells at the primary site of injection were determined.

Experiment [2] deals with 4T1 murine mammary cancer cells. Description: Lung metastasis of luciferase-tagged 4T1 tumors in mice, imaging (relative light units). Format: in vivo. The conditions noted are these: 4T1-luciferase tumor-bearing mice, osmotic pump, about 35 mg/kg/day, four weeks. How it is done: To determine whether specific PKC inhibitors could reduce the amount of PKC translocation/activation in vivo and thereby reduce tumor cell metastasis, animals were administered an αPKC peptide inhibitor, or appropriate control, via an implanted osmotic pump, following the injection of luciferase-tagged tumor cells. […] The data are summarized in the bar graph shown in FIG. 4, along with similar data relating to the use of a βIIV5-3-TAT conjugate peptide (βPKC; SEQ ID NO: 27). The extent of lung metastasis is expressed as relative light units.
Balb/c female mice (6 weeks old) were injected semi-orthotopically with 4T1 murine mammary cancer cells tagged with luciferase ([…] cells/100 μL). One week later, an osmotic minipump was implanted subcutaneously in each animal, for delivery of saline (control), TAT peptide (control, YGRKKRRQRRR, SEQ ID NO: 25), the peptide inhibitor αV5-3 (QLVIAN, SEQ ID NO: 6) attached via an N-terminal disulfide bond to TAT peptide (YGRKKRRQRRR-CC-QLVIAN, SEQ ID NO: 26).
In other experiments, the peptide inhibitor βIIV5-3 (QEVIAN, SEQ ID NO: 13) or εV1-2 (EAVSLKPT, SEQ ID NO: 20) is attached via an N-terminal disulfide bond to the TAT peptide (SEQ ID NOs: 27 and 28, respectively). The TAT control, αV5-3-TAT, βIIV5-3-TAT, or εV1-2-TAT conjugate peptides are administered at about 35 mg/kg/day for two and four weeks.
After two weeks of treatment with αV5-3-TAT, some animals were selected form imaging (IVIS® 29, Xenogen Corporation, Alameda, Calif.) and analysis, with the remaining animals imaged after four weeks of treatment.
FIG. 4 is a bar graph showing the extent of lung metastasis, expressed as relative light units (based on imaging as exemplified in FIG. 3), in tumor-bearing mice treated for four weeks with saline, the αV5-3-TAT conjugate peptide (αPKC), or the βIIV5-3-TAT conjugate peptide (βPKC). The extent of lung metastasis, quantified approximately by the relative light units, for mice treated with saline, the αPKC inhibitor, and the βIIV5-3 PKC inhibitor peptide is shown. The extent of lung metastases is reduced in the animals treated with the αPKC inhibitor.

The test system of experiment [3] is tumor cells. Description: Adhesion of intravenously injected tumor cells to the lungs (imaging). As to conditions: for adhesion of tumor cells in the lung, imaging: versus TAT. It counts as in vivo, mice. On the procedure: FIG. 7A is a bar graph showing the affect of αV5-3-TAT peptide on the adhesion of tumor cells into the lungs. Animals were treated with TAT carrier peptide (TAT), or αV5-3-TAT peptide (PKC alpha inhibitor), initiated two days before, and continued for 12 days following, injection of tumor cells intravenously;
FIGS. 7B-7C are images of mice two days after treatment as described in FIG. 7A. The mice in FIG. 7B were treated with TAT and the mice in FIG. 7C treated with αV5-3-TAT peptide.
FIGS. 7D-7E are images of mice following five days of treatment as described in FIG. 7A. The mice in FIG. 7D were treated TAT (control) and the mice in FIG. 7E were treated with αV5-3-TAT peptide (PKC a inhibitor).
For example, FIG. 7A is a bar graph showing the affect of αV5-3-TAT peptide on the adhesion of tumor cells into the lungs. In this experiment, animals were treated with TAT carrier peptide (TAT), or αV5-3-TAT peptide (PKC alpha inhibitor), for two days before injection of tumor cells intravenously. Adhesion of tumor cells to the lung was reduced in animals treated with the PKC alpha inhibitor compared to control animals.
FIGS. 7B and 7C are images of representative mice two days after treatment. The mice in FIG. 7B were treated with TAT and the mice in FIG. 7C treated with αV5-3-TAT peptide. […] FIGS. 7D-7E are images of mice following five days of treatment. The mice in FIG. 7D were treated TAT (control) and the mice in FIG. 7E were treated with αV5-3-TAT peptide (PKC a inhibitor).

For the substance “YGRKKRRQRRR-CC-QLVIAN (YGRKKRRQRRRCCQLVIAN; disulfide 12-13 (inferred)) [αV5-3-TAT]”, the “invasion of lung tissues by tumor cells (histology)” value in the experiment with tumor cells [1] is “reduced”. Besides, the “reduction in the number of cells at the primary tumor site” value in the experiment on 4T1 tumor cells is reported as “two-fold”. Further, in experiment [2], the “effect on lung metastasis compared to control animals (in words)” value is “reduced” and the “reduction of lung metastasis compared to control animals” value lay within 4 to 5 fold. Moreover, in the experiment with tumor cells [3] (five days of treatment, FIGS. 7D-7E), the “adhesion of tumor cells in the lung, imaging” value was “reduced adhesion”. In addition, the “adhesion of tumor cells to the lung” value in the experiment with tumor cells [3] (treatment from two days before intravenous injection of tumor cells, FIG. 7A, versus TAT control) is recorded as “reduced”. Besides, the “adhesion of tumor cells in the lung, imaging” value in the experiment with tumor cells [3] (two days after treatment, FIGS. 7B-7C) was “reduced adhesion”.
